Measured values taken from patent US4372949A, “Treatment of cancer with carcinostatic and immunostimulating agent containing lysophospholipid and phospholipid” (Toyama Chemical Co., Ltd., priority 1979, dated 1983).

What was measured:
L-1210 leukemic cells = assay: Pre-administration effect to L-1210 (L-1210 allograft); format: in vivo, mice (ddN strain); details: i.p., 7 days pre-administration
Method: Each test compound was repeatedly administered (at a dose of 40 mg/kg as calculated in terms of L-lysolecithin) intraperitoneally to ddN strain mice (male, 6-week old) for a period of 7 days, and after one-week no-administration period, 1×10^6 L-1210 leukemic cells were inoculated intraperitoneally and the average number of survival days of the test animal was determined.

[1] = tested on: Lewis lung cancerous cells; assay: Inhibitory effect against metastasis of Lewis lung cancer; format: in vivo, mice (BDF1 strain); details: L-lysolecithin 40 mg/kg i.p., 10 days
Method: 1×10^6 Lewis lung cancerous cells were given intravenously to BDF1 strain (female, 13-week old) mice, and after 24 hours, L-lysolecithin (40 mg/kg) was administered intraperitoneally while a mixture of a fat emulsion (20 ml/kg) and L-lysolecithin (40 mg/kg) was administered intravenously, each for a period of 10 days repeatedly, and at the 11th day, the breast of each test mouse was cut open and the dry weight of the lung (mg mean ± S.E.) was measured. The inhibitory effect was judged by the ratio to the control group (T/C).

mice = assay: Acute toxicity; format: in vivo; details: female, intravenous injection
Excerpt: The results of measurement of acute toxicity on some typical compounds prepared according to this invention are shown in Table 9.
(Test animal: mice, female; intravenous injection)

[2] = Table 5, 40 mg/kg L-lysolecithin (No. 7: + 20 ml/kg fat emulsion)

L-lysolecithin was tested, and the “Average number of survival days” value (L-1210 leukemic cells; Table 4, 40 mg/kg as L-lysolecithin) was greater than 21.0 days, the “Number of survival days (mean ± S.E.)” value (L-1210 leukemic cells; [2]) was 21.0 days and the “Number of survivor for 21 days/Number of mice tested” value (L-1210 leukemic cells; [2]) was 6/6. The “Dry lung weight (mean ± S.E.)” value [1] was 34.3 ± 1.6 mg, the “Increased weight (mean ± S.E.)” value [1] was 4.7 ± 1.6 mg and the T/C ([1]; ratio to control group) was 29.0%. The LD50 (mice) was 122 mg/kg.
